What was measured:
[1] = system: KPC cells; test: cell viability with tigecycline; assay type: cell-based, mouse; settings: parental cells on wild-type ECM versus R/R ECM or DDR1^KD cells on wild-type ECM, LG medium
Protocol: (§1) FIGS. 14A-14J: Effect of macropinocytosis and mitochondria on Col I-controlled PDAC cell growth. FIG. 14A, Bromodeoxyuridine (BrdU) incorporation into KPC cells plated on ECM mixtures produced by R/R and WT fibroblasts (R:W). Scale bars, 10 μm. FIG. 14B, FIG. 14C, Paren. and IKKα^KD KPC (FIG. 14B) or KC (FIG. 14C) cells were plated −/+ WT or R/R ECM and incubated in LG −/+ indicated reagents. Viable cells were measured after 3 days and depicted relative to untreated plastic-plated Paren. cells. (FIG. 14C). IKKα KD efficiency is shown on the right (FIG. 14B). […] Total viable cells were measured as above and are presented relative to the untreated cells. FIG. 14H, Mitochondrial ATP production calculated from FIG. 6B. […] Quantification of the SR positive area is shown on the left. […] Statistical significance determined by two-tailed t-test. […]
(§2) Cells were plated in 96-well plates coated with or without ECM at a density of 3,000 cells (MIA, 1305) or 1,500 cells (KPC or KC) per well and incubated overnight before treatment. […] Cell viability was determined with a Cell Counting Kit-8 assay (Glpbio). Optical density was read at 450 nm and analysed using a microplate reader with SoftMax 6.5 software (FilterMax F5, Molecular Devices). […]

[2] = system: 1305 cells; test: cell viability with tigecycline; assay type: cell-based, human; settings: parental cells on wild-type ECM versus R/R ECM or DDR1^KD cells on wild-type ECM, LG medium, 24 h
Protocol: as §1, §2

[3] = system: KPC cells; test: macropinocytosis and mitochondria in KPC cells on ECM from Ilomastat-treated fibroblasts; assay type: cell-based, mouse; settings: ECM from Ilomastat-treated wild-type fibroblasts, LG medium, 24 h
Protocol: FIGS. 12A-12M: Inhibition of Col I cleavage shuts down NRF2-driven macropinocytosis and mitochondrial biogenesis. FIG. 12A, MP and mitochondria in KPC cells plated on indicated ECM and incubated in LG for 24 h. Col IIB in indicated ECM preparations is shown on the right. FIG. 12B, IB of indicated proteins in above cells. FIG. 12C, MP and mitochondria in indicated KPC cells plated on R/R Col I^Δ ECM and incubated in LG for 24 h. FIG. 12D, LB of indicated proteins in 1305 cells plated on ECM produced by bacterial collagenase (CLG, 50 μg/ml) treated or untreated fibroblasts and incubated in LG medium −/+CLG for 24 h. FIG. 12E, Genes differentially expressed between KPC cells plated on indicated ECM. Light gray: replicates with low expression (z-score=−2); dark gray: replicates with high expression (z-score=+2). […] Quantitation on the right. […] Statistical significance determined by two-tailed t-test. ***P<0.001, ****P<0.0001. […]
Cells were cultured on coverslips coated with or without ECM and fixed in 4% paraformaldehyde for 10 min at room temperature or methanol for 10 min at —20° C. […] Images were captured and analysed using a TCS SPE Leica confocal microscope with Leica Application Suite AF 2.6.0.7266 software (Leica).
Macropinosomes or mitochondria were quantified by using the ‘Analyze Particles’ feature in Image J (NIH). […] Kaplan—Meier survival curves were analysed by log-rank test. […]

| Structure (SMILES) | sensitivity to tigecycline (viable cells) [1] | sensitivity to tigecycline (viable cells) [2] | behaviour of ECM from treated fibroblasts (macropinocytosis, mitochondria) [3] |
| --- | --- | --- | --- |
| CN(C)c1cc(NC(=O)CNC(C)(C)C)c(O)c2c1C[C@H]1C[C@H]3[C@H](N(C)C)C(O)=C(C(N)=O)C(=O)[C@@]3(O)C(O)=C1C2=O [tigecycline] | more sensitive | more sensitive |  |
| CNC(=O)[C@H](Cc1c[nH]c2ccccc12)NC(=O)[C@@H](CC(=O)NO)CC(C)C [Ilomastat] |  |  | behaved like R/R ECM |

Reference: patent US20230341404A1, “TARGETING STROMA-CANCER INTERACTIONS IN CANCER” (The Regents of the University of California, priority 2022, published 2023)
